One assay addresses NMDA receptors. As to conditions: cited from earlier work.
The target in assay [1] is AMPA receptors. As to conditions: read-out: Ki [3H]AMPA; rat cortical synaptosomes; ref Clausen et al 14; cited from earlier work.
Assay [2] addresses KA receptors. As to conditions: cited from earlier work; for Ki [3H]KA: rat cortical synaptosomes, ref Clausen et al 14.
The next assay addresses GluN1/GluN2D (Rattus norvegicus, UniProt Q62645). The assay is described as follows: Two-electrode voltage-clamp, Xenopus oocytes expressing GluN1/GluN2D. Type of assay: cell-based. As to conditions: EC50 GluN2A vs GluN2D. Background: Two-electrode voltage clamp holds a large cell at a set potential and records current.
Assay [3] deals with AMPA receptors. The assay is described as follows: [3H]AMPA radioligand binding, rat cortical synaptosomes. As to conditions: at a concentration of 100 μM.
Assay [4] relates to KA receptors. Put plainly: [3H]KA radioligand binding, rat cortical synaptosomes. As to conditions: at a concentration of 100 μM.

The structures appear in SMILES notation.

The text below walks through data of PMC3689883 (Journal of medicinal chemistry, 2013).

Usually Ki stands for a dissociation constant, usually derived from enzyme kinetics or from competition with a known ligand. In general, Kd refers to the constant that tells how readily two partners part at equilibrium.

GluN1/GluN2D, sequence (Q62645 28-1323, other chains not shown): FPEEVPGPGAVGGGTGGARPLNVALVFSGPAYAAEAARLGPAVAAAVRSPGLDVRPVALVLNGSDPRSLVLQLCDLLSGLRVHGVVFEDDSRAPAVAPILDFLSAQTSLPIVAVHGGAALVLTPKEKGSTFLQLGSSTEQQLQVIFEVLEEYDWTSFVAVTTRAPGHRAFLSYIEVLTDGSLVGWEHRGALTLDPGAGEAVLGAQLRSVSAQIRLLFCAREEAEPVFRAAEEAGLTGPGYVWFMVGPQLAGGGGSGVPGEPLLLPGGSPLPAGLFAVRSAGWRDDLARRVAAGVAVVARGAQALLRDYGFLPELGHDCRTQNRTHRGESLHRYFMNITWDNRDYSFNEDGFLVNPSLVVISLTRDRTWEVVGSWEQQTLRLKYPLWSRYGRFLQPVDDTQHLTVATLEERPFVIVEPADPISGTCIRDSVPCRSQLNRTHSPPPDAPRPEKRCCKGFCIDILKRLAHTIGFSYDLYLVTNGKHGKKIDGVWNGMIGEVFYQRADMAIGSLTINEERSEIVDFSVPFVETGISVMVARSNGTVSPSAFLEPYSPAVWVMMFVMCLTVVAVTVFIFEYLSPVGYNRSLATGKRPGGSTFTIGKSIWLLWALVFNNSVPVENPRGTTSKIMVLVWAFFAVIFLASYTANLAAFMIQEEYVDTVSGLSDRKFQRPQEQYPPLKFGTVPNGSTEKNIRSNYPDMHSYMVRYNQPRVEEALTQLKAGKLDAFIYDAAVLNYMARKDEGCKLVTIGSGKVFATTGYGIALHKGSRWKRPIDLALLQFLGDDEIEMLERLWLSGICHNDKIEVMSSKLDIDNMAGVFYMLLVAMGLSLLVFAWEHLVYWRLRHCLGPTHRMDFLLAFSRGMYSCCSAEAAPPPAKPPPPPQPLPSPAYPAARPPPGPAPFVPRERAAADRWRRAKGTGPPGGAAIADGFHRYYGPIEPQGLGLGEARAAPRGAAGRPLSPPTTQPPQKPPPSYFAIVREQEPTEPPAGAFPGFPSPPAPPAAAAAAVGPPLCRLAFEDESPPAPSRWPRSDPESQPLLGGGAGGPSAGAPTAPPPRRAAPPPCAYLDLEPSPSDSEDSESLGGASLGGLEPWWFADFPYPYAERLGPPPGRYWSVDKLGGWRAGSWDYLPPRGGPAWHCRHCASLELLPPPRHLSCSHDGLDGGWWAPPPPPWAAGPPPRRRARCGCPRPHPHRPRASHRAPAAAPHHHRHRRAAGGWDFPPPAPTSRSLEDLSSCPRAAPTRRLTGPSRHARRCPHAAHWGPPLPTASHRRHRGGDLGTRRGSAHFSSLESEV

In the case of `NC(C(=O)O)c1ccnn1O` (racemic) [Compound 3a, (RS)-2-(N-hydroxypyrazol-5-yl)glycine], the Ki is 10 µM at NMDA receptors (read-out: Ki [3H]CGP39653, rat cortical synaptosomes, ref Clausen et al 14) and more than 100 µM at AMPA receptors [1]. For the same compound, on KA receptors [2], the “Ki [3H]KA” value is more than 100 µM.
Turning to `CCCc1cnn(O)c1[C@@H](N)C(=O)O` [Compound 3b], the Ki on AMPA receptors [1] is more than 100 µM. Moreover, the “Ki [3H]KA” value at KA receptors [2] is more than 100 µM.
On to `CC[C@]1(C(=O)O)C[C@H]1[C@H](N)C(=O)O.Cl` [Compound 4c, (1S,2R)-2-((S)-amino(carboxy)methyl)-1-ethylcyclopropanecarboxylic acid hydrochloride], for which the “fold more potent at GluN2D compared to GluN2A” value on GluN1/GluN2D is on record as 15 fold.
With `CCCC[C@]1(C(=O)O)C[C@H]1[C@H](N)C(=O)O.Cl` [Compound 4e, (1S,2R)-2-((S)-amino(carboxy)methyl)-1-butylcyclopropanecarboxylic acid hydrochloride], the “binding to AMPA receptors” value in the assay with AMPA receptors [3] is “not binding”. In the assay on KA receptors [4], the “binding to KA receptors” value was “not binding”.
Consider `CCCC(=CC(N)C(=O)O)CP(=O)(O)O` (stereo not shown) [[^3H]CGP 39653], for which, on NMDA receptors (read-out: Kd of radioligand, radioligand used at 2 nM), the Kd is 0.006 µM.
In the case of `C=C(C)[C@H]1CN[C@H](C(=O)O)[C@H]1CC(=O)O` [[^3H]KA, kainic acid], the Kd on KA receptors [2] (read-out: Kd of radioligand, radioligand used at 5 nM) was 0.0056 µM.
